Measured values taken from publication PMC6054832, “Novel pharmacological maps of protein lysine methyltransferases: key for target deorphanization” (Journal of Cheminformatics, 2018).

How the values were obtained:
KMT5C [1] = target: T1, KMT5C (Homo sapiens, UniProt Q86Y97); test: radioactive [3H]SAM methyltransferase assay with nucleosome substrate (Eurofins), […]; type: biochemical
KMT5C [2] = target: T1, KMT5C; test: biochemical; design: Eurofins radiometric methyltransferase inhibition assay with [3H]SAM and nucleosome, core histone or histone H3 substrate
Source text: (§1) Inhibitory activity assays for prospective validation

NSD1 [3] = target: T2, NSD1 (Homo sapiens, UniProt Q96L73); test: biochemical; design: Eurofins radiometric methyltransferase inhibition assay with [3H]SAM and nucleosome, core histone or histone H3 substrate
Source text: as §1

KMT2A = KMT2A (Homo sapiens, UniProt Q03164); test: biochemical; design: Eurofins radiometric methyltransferase inhibition assay with [3H]SAM and nucleosome, core histone or histone H3 substrate
Source text: as §1

SETD2 [4] = target: T3, SETD2 (Homo sapiens, UniProt Q9BYW2); test: biochemical; design: Eurofins radiometric methyltransferase inhibition assay with [3H]SAM and nucleosome, core histone or histone H3 substrate
Source text: as §1

NSD2 = target: T4, NSD2 (Homo sapiens, UniProt O96028); test: biochemical; design: Eurofins radiometric methyltransferase inhibition assay with [3H]SAM and nucleosome, core histone or histone H3 substrate
T4 sequence (O96028 1-1365): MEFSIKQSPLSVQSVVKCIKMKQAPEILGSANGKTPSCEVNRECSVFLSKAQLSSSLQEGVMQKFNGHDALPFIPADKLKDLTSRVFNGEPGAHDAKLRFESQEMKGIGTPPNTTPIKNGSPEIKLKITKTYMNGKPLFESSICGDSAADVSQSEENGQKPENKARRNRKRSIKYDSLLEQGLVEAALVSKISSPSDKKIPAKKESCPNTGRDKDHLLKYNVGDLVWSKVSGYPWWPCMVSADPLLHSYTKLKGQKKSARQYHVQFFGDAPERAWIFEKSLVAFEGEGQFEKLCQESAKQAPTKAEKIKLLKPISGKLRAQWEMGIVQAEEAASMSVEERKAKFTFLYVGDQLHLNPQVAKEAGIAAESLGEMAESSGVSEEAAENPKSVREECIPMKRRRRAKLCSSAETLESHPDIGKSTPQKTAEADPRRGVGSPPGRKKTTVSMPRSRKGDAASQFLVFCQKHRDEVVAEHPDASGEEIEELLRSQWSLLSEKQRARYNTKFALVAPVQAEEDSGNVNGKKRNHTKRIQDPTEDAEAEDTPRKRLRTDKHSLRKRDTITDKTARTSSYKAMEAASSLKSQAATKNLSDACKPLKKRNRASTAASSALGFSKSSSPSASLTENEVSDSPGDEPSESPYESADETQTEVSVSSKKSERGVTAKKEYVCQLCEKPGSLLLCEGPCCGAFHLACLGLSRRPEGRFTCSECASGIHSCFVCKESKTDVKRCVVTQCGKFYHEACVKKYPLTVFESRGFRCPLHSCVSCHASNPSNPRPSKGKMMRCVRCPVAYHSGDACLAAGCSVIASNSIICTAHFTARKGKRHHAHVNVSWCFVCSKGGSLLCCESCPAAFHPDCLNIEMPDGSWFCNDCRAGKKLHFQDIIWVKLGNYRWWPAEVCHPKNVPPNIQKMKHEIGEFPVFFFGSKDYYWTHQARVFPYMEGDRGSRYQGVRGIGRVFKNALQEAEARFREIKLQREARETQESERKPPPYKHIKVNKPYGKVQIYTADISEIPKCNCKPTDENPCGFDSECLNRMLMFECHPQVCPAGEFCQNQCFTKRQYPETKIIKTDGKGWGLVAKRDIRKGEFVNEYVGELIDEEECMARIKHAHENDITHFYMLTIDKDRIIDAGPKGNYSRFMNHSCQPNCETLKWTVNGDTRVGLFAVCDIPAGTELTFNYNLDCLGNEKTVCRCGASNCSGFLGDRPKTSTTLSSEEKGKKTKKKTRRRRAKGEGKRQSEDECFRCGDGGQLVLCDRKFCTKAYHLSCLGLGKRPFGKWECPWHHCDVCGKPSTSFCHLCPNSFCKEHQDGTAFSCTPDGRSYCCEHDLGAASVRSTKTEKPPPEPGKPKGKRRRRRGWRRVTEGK
Source text: as §1

NSD1 [5] = target: T2, NSD1; test: radioactive [3H]SAM methyltransferase assay with nucleosome substrate (Eurofins), […]; type: biochemical
SETD2 [6] = target: T3, SETD2; test: as above; type: biochemical

T1 sequence (Q86Y97 whole entry): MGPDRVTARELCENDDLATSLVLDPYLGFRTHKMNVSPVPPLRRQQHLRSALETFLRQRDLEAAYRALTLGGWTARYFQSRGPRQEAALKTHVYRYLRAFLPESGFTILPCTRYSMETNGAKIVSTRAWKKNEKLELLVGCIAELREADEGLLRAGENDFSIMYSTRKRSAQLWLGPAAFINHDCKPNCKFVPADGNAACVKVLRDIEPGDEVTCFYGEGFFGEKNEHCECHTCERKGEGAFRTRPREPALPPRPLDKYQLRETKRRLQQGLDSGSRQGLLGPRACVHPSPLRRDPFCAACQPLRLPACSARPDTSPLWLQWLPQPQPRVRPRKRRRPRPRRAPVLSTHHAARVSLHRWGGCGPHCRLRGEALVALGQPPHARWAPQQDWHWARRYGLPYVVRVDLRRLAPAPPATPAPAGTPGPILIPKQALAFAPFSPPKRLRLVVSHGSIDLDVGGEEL
Sequence of KMT2A (Q03164 whole entry): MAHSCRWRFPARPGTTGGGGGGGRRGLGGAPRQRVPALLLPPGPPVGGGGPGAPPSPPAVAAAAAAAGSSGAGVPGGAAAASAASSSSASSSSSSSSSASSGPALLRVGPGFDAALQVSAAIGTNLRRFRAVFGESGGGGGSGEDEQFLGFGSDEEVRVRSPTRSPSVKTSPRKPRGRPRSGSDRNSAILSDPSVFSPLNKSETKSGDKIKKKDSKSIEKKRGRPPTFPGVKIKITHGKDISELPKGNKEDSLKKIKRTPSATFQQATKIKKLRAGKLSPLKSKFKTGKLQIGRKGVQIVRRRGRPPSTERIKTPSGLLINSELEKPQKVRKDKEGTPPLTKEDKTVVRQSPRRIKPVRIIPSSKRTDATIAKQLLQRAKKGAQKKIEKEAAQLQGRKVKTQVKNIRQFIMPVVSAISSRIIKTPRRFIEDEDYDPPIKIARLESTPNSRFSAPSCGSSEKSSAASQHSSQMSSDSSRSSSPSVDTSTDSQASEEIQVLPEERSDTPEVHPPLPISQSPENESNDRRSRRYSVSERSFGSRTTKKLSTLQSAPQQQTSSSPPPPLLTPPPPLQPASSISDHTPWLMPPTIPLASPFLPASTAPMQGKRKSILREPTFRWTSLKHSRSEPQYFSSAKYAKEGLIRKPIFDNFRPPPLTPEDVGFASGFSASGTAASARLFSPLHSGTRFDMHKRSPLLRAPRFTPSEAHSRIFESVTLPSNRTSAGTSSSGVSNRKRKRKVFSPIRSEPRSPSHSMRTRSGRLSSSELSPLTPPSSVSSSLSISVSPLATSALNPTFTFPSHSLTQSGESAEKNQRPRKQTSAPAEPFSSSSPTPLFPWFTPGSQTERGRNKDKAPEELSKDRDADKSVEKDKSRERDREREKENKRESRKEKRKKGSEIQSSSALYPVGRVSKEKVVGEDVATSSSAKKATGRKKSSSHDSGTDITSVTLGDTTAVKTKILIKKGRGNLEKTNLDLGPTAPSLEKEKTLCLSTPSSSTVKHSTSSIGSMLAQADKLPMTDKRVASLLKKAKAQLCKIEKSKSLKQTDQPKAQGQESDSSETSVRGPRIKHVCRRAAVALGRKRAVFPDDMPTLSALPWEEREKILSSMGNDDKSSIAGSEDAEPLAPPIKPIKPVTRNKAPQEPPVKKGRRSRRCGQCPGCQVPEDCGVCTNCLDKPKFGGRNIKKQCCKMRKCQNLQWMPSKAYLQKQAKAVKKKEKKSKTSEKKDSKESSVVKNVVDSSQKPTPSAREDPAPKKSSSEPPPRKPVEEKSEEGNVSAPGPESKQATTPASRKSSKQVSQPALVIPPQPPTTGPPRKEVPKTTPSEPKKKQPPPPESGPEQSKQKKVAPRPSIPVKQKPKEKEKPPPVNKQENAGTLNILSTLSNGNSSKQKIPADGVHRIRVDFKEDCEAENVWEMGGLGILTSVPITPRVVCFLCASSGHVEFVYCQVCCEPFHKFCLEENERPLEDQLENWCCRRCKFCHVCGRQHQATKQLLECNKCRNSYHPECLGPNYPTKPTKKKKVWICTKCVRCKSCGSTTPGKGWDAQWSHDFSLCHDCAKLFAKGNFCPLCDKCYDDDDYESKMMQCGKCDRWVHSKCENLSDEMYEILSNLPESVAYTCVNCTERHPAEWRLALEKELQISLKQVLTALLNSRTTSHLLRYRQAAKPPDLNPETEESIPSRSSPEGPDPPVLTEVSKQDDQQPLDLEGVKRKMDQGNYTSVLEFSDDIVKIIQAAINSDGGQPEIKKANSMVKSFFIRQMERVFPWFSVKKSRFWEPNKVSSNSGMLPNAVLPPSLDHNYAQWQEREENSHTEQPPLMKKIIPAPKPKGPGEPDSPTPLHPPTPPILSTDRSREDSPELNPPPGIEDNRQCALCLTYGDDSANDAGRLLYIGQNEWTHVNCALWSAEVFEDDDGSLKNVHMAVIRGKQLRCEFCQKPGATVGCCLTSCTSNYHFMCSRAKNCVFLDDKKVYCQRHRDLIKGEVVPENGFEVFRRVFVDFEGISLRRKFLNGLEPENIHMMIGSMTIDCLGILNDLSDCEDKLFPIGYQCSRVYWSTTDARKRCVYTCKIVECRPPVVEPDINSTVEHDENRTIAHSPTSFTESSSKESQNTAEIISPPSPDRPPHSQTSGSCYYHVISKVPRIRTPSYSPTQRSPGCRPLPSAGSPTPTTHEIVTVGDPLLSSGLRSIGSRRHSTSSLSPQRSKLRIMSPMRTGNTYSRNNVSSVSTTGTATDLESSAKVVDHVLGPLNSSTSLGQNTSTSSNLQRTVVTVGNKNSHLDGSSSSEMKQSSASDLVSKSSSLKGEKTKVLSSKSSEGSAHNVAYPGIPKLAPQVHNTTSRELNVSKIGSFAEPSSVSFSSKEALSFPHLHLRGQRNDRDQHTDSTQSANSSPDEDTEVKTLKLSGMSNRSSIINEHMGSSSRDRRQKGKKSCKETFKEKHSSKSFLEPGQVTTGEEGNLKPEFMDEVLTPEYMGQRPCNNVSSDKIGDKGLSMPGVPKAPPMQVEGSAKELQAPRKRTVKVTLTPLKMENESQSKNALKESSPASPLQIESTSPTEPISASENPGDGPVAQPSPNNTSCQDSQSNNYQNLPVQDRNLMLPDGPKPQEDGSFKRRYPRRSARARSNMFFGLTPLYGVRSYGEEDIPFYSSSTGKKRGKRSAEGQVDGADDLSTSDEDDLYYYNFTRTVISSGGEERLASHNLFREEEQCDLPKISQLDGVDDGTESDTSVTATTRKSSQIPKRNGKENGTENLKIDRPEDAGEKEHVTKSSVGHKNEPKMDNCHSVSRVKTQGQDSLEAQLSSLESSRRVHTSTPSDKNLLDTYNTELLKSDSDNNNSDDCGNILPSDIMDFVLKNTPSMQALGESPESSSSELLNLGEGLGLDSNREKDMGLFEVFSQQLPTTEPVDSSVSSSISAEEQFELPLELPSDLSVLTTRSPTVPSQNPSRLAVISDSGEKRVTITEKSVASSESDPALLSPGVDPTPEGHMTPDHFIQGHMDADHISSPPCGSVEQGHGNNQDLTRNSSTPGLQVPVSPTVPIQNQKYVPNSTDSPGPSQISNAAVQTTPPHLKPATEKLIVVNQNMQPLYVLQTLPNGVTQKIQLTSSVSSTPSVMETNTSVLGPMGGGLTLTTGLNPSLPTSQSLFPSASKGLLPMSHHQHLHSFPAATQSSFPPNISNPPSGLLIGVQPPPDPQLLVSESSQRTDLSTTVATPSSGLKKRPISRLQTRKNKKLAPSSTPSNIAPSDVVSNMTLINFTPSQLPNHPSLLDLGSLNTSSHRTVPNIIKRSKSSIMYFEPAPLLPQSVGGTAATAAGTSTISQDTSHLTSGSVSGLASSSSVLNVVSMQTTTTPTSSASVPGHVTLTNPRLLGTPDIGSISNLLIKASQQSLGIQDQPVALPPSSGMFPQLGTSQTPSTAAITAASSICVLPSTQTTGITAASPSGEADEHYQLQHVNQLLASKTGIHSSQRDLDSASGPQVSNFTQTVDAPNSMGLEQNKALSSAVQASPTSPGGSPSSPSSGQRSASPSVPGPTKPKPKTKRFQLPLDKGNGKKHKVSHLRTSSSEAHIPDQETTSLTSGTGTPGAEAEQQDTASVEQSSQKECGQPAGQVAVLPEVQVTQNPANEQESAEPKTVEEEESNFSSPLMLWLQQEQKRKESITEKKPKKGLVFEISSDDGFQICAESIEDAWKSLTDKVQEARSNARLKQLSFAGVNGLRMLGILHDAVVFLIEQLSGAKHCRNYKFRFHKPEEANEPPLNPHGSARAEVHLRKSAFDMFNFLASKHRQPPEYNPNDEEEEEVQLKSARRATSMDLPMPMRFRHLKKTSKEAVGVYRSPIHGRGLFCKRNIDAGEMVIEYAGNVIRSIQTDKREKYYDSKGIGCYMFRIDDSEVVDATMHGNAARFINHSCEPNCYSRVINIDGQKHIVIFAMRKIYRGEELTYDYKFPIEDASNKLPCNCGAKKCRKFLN

Row | SMILES | radioactive [3H]SAM methyltransferase assay with nucleosome substrate (Eurofins) (KMT5C [1]) | inhibition at 10 µM (KMT5C [2]) [%] | inhibition at 100 µM (KMT5C [2]) [%] | inhibition at 10 µM (NSD1 [3]) [%] | inhibition at 100 µM (NSD1 [3]) [%] | inhibition at 10 µM (KMT2A) [%] | inhibition at 100 µM (KMT2A) [%] | inhibition at 100 µM (SETD2 [4]) [%] | inhibition at 10 µM (NSD2) [%] | inhibition at 100 µM (NSD2) [%] | inhibition at 10 µM (NSD1 [5]) [%] | inhibition at 10 µM (SETD2 [4]) [%] | inhibition at 100 µM (SETD2 [6]) [%]
1 | COc1cc2c(NC3CCN(C)CC3)cc(-c3ccc(C)o3)nc2cc1OCCCN1CCCC1 [CM-272] | low micromolar range | 92 | 91.8 | 63.5 | 97.8 | -1 | 7.4 | 45.9 | -0.5 | 11.7 | > 50 |  | 
2 | COc1cc2c(NC3CC4(CCN(C)CC4)C3)cc(-c3ccc(C)o3)nc2cc1OCCCN1CCCC1 [CM-679] | low micromolar range | 85.7 | 92.9 | 81.7 | 98 | 8.6 | 48.8 |  | 11.9 | 0.3 | > 50 | -52.4 | 84
3 | COc1cc2c(NC3CCN(C)CC3)cc(-c3ccc(C)o3)nc2cc1OC1CC2(C1)CN(C)C2 [CM-986] | low micromolar range | 79.1 | 87.7 | 55.9 | 98.8 | 2.9 | 30.5 | 42.1 | -7.2 | 2.7 | > 50 | -69.8 | 
